On data set [1], the source says:
It is also desirable that the resulting formulation be stable. […] This is important because these conditions can be met in commerce. The crystallization would reduce the amount of insecticide in solution and reduce the efficacy of the solution applied to the animal.

The conditions of data set [2]: formulation of Example 9. The text has this:
The formulation of Example 9 was stored under variable temperatures up to 2 years to determine the stability of dinotefuran in solution.

SMILES strings stand for the structures. Like-named read-outs stand apart in the source and are kept apart here.

Turning to `CNC(=N[N+](=O)[O-])NCC1CCOC1` (stereo not drawn) [Dinotefuran, 1-{(tetrahydro-3-furanyl)methyl}-2-nitro-3-methylguanidine], in data set [1] (methoprene at about 0.8% and below, compared to a similar formulation without methoprene), the “increase in concentration by including methoprene” value was around 50%. The “increase in concentration achievable by including pyriproxyfen at low levels” value in data set [1] (phenyl methanol formulation, no crystal formation at 0° F. during a 1 month period) is around 50%. Besides, the “dinotefuran concentration that will crystallize at 0° F. within a few days” value in data set [1] (typically, 0° F.) is listed as “over 8%”. Besides, the “Dinotefuran concentration in solution (average)” value came to 15.03 percent by weight in data set [2] (40° F., 1 Mo); 15.33 percent by weight in data set [2] (110° F., 3 Mo); 15.22 percent by weight in data set [2] (130° F., 1 Mo); 15.05 percent by weight in data set [2] (F/T, 1 Mo); 15.43 percent by weight in data set [2] (INITIAL); 15.17 percent by weight in data set [2] (RT (25° C.), 3 Mo). Moreover, the “Dinotefuran concentration in solution (average)” value is 15.24 percent by weight in data set [2] (RT, 1 Yr); 15.735 percent by weight in data set [2] (RT, 2 Yrs); 15.06 percent by weight in data set [2] (RT, 6 Mo).
